Holding throughout (format): biochemical
In one assay the target is T1, sPLA2-X protein (Homo sapiens, UniProt O15496).
T1 sequence (O15496 43-165): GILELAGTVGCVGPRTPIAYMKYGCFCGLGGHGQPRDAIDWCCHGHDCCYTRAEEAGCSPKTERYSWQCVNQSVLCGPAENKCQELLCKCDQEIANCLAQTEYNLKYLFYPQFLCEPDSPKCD
The assay is described as follows: sPLA2-X enzyme inhibition assay (thio-PC substrate, DTNB detection, absorbance 410 nm). Also noted: made in house; host or cells: E. coli. Conditions: class symbols. The text has this:
(§1) Screening Compounds for Inhibition of sPLA2-X, sPLA2-V, and sPLA2-IIA Enzyme Activity
(§2) These sPLA2 enzymes hydrolyze the sn-2 acyl chains of glycerophospholipids, resulting in the release of a free fatty acid and a lysophospholipid. In the case of the thio-PC substrate, this enzymatic hydrolysis results in a free sulfhydryl group remaining on the lysophospholipid. This free sulfhydryl reacts with DTNB to produce the chromogenic product 5-nitro-2-thiobenzoic acid (TNB) which can be quantitated by absorbance at 410 nm. The amount of TNB produced reflects the hydrolytic activity of the enzyme.
(§3) The recombinant human sPLA2 groups IIA, V, and X enzymes were expressed in E. coli and purified to >90% purity by standard biochemical methods.
(§4) Procedure of Enzyme Inhibition for sPLA2-X • 1. […] Dilute the test compounds in 100% DMSO by half-log steps in a 96-well dilution plate using columns 1-11 (one compound per row). Column 12 contains DMSO alone with no compound. • 3. Prepare a 3.5 mM thio-PC substrate solution by drying down 7.2 mg of stock thio-PC in ethanol under a gentle stream of N2 gas. When dry, add 4 mL assay buffer (25 mM Tris, pH7.4; 100 mM KCl; 10 mM CaCl2; 0.1% Triton X-100) and warm in a 37° C. water bath for 20 minutes with intermittent vortexing. • 4. Prepare an “enzyme containing” reaction mix with the following components: 20.4 mL assay buffer; 2 mL DTNB (20 mM in 800 mM Tris, pH8.0); and 11.8 mg recombinant human sPLA2-X enzyme (>95% pure) diluted to a total of 0.8 mL assay buffer. • 5. Prepare a “no enzyme” reaction mix with the following components: 477 μL assay buffer and 45 μL DTNB. • 6. Dispense 58 μL “no enzyme” reaction mix into each of 8 wells (columns 23 and 24, rows M-P). • 7. Dispense 58 μL “enzyme containing” reaction mix into all remaining wells on the plate. • 8. From the 96-well compound dilution plate, add 2 μL from each well for each compound to each of 4 wells with “enzyme containing” reaction mix. Columns 23 and 24 on the assay plate will contain only DMSO (vehicle control). […] After compound addition, mix the contents of each well to ensure that the DMSO is evenly distributed in the well. • 9. Cover the plate and incubate in the dark at room temperature for 15 minutes. • 10. Add 10 μL of thio-PC substrate to all wells. The final concentration of thio-PC in the reactions is 0.5 mM. • 11. Cover the plate and incubate in the dark at room temperature for 30 minutes. • 12. Measure the absorbance of all wells at 410 nm. • 13. Determine the mean absorbance of the “no enzyme” wells. Subtract this value from the absorbance values determined for all other wells (these are now background corrected data). • 14. […] Procedure of Enzyme Inhibition for sPLA2-V • 1. […] Dilute the test compounds in 100% DMSO by half-log steps in a 96-well dilution plate using columns 1-11. Column 12 contains DMSO alone with no compound. • 3. Prepare a 3.5 mM thio-PC substrate solution by drying down 7.2 mg of stock thio-PC in ethanol under a gentle stream of N2 gas. When dry, add 4 mL assay buffer (25 mM Tris, pH7.4; 100 mM KCl; 10 mM CaCl2; 0.1% Triton X-100) and warm in a 37° C. water bath for 20 minutes with intermittent vortexing. • 4. Prepare an “enzyme containing” reaction mix with the following components: 20.4 mL assay buffer; 2 mL DTNB (20 mM in 800 mM Tris, pH8.0); and 12 mg recombinant human sPLA2-V enzyme (>95% pure) diluted to a total of 0.8 mL assay buffer. • 5. Prepare a “no enzyme” reaction mix with the following components: 477 μL assay buffer and […]. • 6. Dispense 58 μL “no enzyme” reaction mix into each of 8 wells (columns 23 and 24, rows M-P). • 7. Dispense 58 μL “enzyme containing” reaction mix into all remaining wells on the plate. • 8. From the 96-well compound dilution plate, add 2 μL from each well for each compound to each of 4 wells with “enzyme containing” reaction mix. Columns 23 and 24 on the assay plate will contain only DMSO (vehicle control).

Assay [1] has as its target T2, recombinant human sPLA2-IIA enzyme (Homo sapiens, UniProt P14555).
T2 construct: made in house; host or cells: E. coli
T2 sequence (P14555 21-144): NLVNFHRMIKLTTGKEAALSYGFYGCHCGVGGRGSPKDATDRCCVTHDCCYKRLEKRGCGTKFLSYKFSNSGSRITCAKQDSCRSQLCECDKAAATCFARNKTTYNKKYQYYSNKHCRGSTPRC
As to the kind of experiment: sPLA2-IIA enzyme inhibition assay (thio-PC substrate, DTNB detection, absorbance 410 nm). The following applies: class symbols.
Description: as §1, §2, §3, §4

The target in assay [2] is T3, recombinant human sPLA2-V enzyme (Homo sapiens, UniProt P39877).
T3 construct: made in house; host or cells: E. coli
T3 sequence (P39877 21-138): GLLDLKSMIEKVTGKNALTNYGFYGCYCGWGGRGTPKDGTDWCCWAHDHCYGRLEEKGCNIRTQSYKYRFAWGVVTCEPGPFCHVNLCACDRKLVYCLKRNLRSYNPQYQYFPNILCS
The assay is described as follows: sPLA2-V enzyme inhibition assay (thio-PC substrate, DTNB detection, absorbance 410 nm).
Description: as §1, §2, §3, §4

[3] abbreviates: read-out: sPLA2 Type X Inhibition (IC50; nM).
[4] abbreviates: read-out: sPLA2 Type IIa Inhibition (IC50; nM).
Setting [5] is: class symbols, read-out: sPLA2 Type V Inhibition (IC50; nM).

Molecules are shown by their SMILES. Read-outs that look alike come from different tables or passages of the source.

The term IC50 denotes the concentration needed to halve the response being measured. For `NC(=O)c1cc2ccc(OC(F)(F)F)cc2n1-c1cccc(C2CC2C(=O)O)c1` (racemic) [Compound 15, trans-2-(3-(2-carbamoyl-6-(trifluoromethoxy)-1H-indol-1-yl)phenyl)cyclopropane-1-carboxylic acid], the IC50 at sPLA2-X protein (setting [3]) is 20 to 50 nM; in assay [1] (setting [4]) it was over 1000 nM; in assay [2] (setting [5]), over 5000 nM.
In the case of `NC(=O)c1cc2ccc(OC(F)(F)F)cc2n1-c1cccc(C2CC2C(=O)O)n1` (racemic) [Compound 28, trans-(rac)-2-(6-(2-carbamoyl-6-(trifluoromethoxy)-1H-indol-1-yl)pyridin-2-yl)cyclopropane-1-carboxylic acid], the IC50 at sPLA2-X protein (setting [3]) was under 20 nM; in assay [1] (setting [4]), over 1000 nM; in assay [2] (setting [5]) it was over 5000 nM.
In the case of `NC(=O)c1cc2ccc(OC(F)(F)F)cc2n1-c1cccc(C2CC2C(=O)O)n1` (racemic) [Compound 28c, cis-(rac)-2-(6-(2-carbamoyl-6-(trifluoromethoxy)-1H-indol-1-yl)pyridin-2-yl)cyclopropane-1-carboxylic acid], the IC50 lay in the range of 20 to 50 nM at sPLA2-X protein (setting [3]), 200 to 500 nM in assay [1] (setting [4]) and 1500 to 5000 nM in assay [2] (setting [5]).
For the compound `NC(=O)c1sc2ccc(OC(F)(F)F)cc2c1-c1cccc(C2CC2C(=O)O)n1` (racemic) [Compound 54, trans-(rac)-2-(6-(2-carbamoyl-5-(trifluoromethoxy)benzo[b]thiophen-3-yl)pyridin-2-yl)cyclopropane-1-carboxylic acid], the IC50 on sPLA2-X protein (setting [3]) is 50 to 200 nM; in assay [1] (setting [4]), over 1000 nM; in assay [2] (setting [5]) it was over 5000 nM.
As to `NC(=O)c1[se]c2ccc(OC(F)(F)F)cc2c1-c1cccc(C2CC2C(=O)O)n1` (racemic) [Compound 55, trans-(rac)-2-(6-(2-carbamoyl-5-(trifluoromethoxy)benzo[b]selenophen-3-yl)pyridin-2-yl)cyclopropane-1-carboxylic acid], the half-maximal inhibitory concentration (IC50) on sPLA2-X protein (sPLA2 Type X Inhibition (IC50; nM)) is over 200 nM; in assay [1] (sPLA2 Type IIa Inhibition (IC50; nM)), over 1000 nM; in assay [2] (sPLA2 Type V Inhibition (IC50; nM), class symbols), over 5000 nM.
On to `NC(=O)c1cc2ccc(OC(F)(F)F)cc2n1-c1cccc([C@H]2C[C@@H]2C(=O)O)n1` (relative stereo) [Compound 28a, trans-(−)-2-(6-(2-carbamoyl-6-(trifluoromethoxy)-1H-indol-1-yl)pyridin-2-yl)cyclopropane-1-carboxylic acid], for which the results for the IC50 (on sPLA2-X protein (setting [3]); in assay [1] (setting [4]); in assay [2] (setting [5])) were under 20 nM, over 1000 nM and over 5000 nM, respectively.
For `C[C@]1(c2cccc(-n3c(C(N)=O)cc4ccc(OC(F)(F)F)cc43)c2)C[C@H]1C(=O)O` (relative stereo) [Compound 38a, cis-2-(3-(2-carbamoyl-6-(trifluoromethoxy)-1H-indol-1-yl)phenyl)-2-methylcyclopropane-1-carboxylic acid] the same measures were under 20 nM, 200 to 500 nM and under 500 nM.
For `C[C@@]1(c2cccc(-n3c(C(N)=O)cc4ccc(OC(F)(F)F)cc43)c2)C[C@H]1C(=O)O` (relative stereo) [Compound 38b, trans-2-(3-(2-carbamoyl-6-(trifluoromethoxy)-1H-indol-1-yl)phenyl)-2-methylcyclopropane-1-carboxylic acid] the same measures were 20 to 50 nM, over 1000 nM and over 5000 nM.
For `NC(=O)c1cc2ccc(OC(F)(F)F)cc2n1-c1cccc(C2CC2C(=O)O)c1` (single isomer, unassigned) [Compound 15a, trans-(+)-2-(3-(2-carbamoyl-6-(trifluoromethoxy)-1H-indol-1-yl)phenyl)cyclopropane-1-carboxylic acid] the same measures were over 200 nM, over 1000 nM and over 5000 nM.
`NC(=O)c1cc2ccc(OC(F)(F)F)cc2n1-c1cccc(C2CC2C(=O)O)c1` (single isomer, unassigned) [Compound 15b, trans-(−)-2-(3-(2-carbamoyl-6-(trifluoromethoxy)-1H-indol-1-yl)phenyl)cyclopropane-1-carboxylic acid]: the IC50 on sPLA2-X protein (setting [3]) is 20 to 50 nM; in assay [1] (setting [4]), over 1000 nM; in assay [2] (setting [5]) it was over 5000 nM.
With `NC(=O)c1cc2ccc(OC(F)(F)F)cc2n1-c1cccc([C@@H]2C[C@H]2C(=O)O)n1` (single isomer, unassigned) [Compound 28b, trans-(+)-2-(6-(2-carbamoyl-6-(trifluoromethoxy)-1H-indol-1-yl)pyridin-2-yl)cyclopropane-1-carboxylic acid], the results for the IC50 (at sPLA2-X protein (setting [3]); in assay [1] (setting [4]); in assay [2] (setting [5])) were over 200 nM, over 1000 nM and over 5000 nM, respectively.
For `NC(=O)c1cc2ccc(OC(F)(F)F)cc2n1-c1cccc(C2CC2C(=O)O)n1` (single isomer, unassigned) [Compound 28d, cis-(−)-2-(6-(2-carbamoyl-6-(trifluoromethoxy)-1H-indol-1-yl)pyridin-2-yl)cyclopropane-1-carboxylic acid] the same measures were 50 to 200 nM, over 1000 nM and 1500 to 5000 nM.
For `NC(=O)c1cc2ccc(OC(F)(F)F)cc2n1-c1cccc(C2CC2C(=O)O)n1` (single isomer, unassigned) [Compound 28e, cis-(+)-2-(6-(2-carbamoyl-6-(trifluoromethoxy)-1H-indol-1-yl)pyridin-2-yl)cyclopropane-1-carboxylic acid] the same measures were under 20 nM, under 200 nM and over 5000 nM.
Turning to `NC(=O)c1cc2ccc(OC(F)(F)F)cc2n1-c1ccc2c(c1)C(CC(=O)O)CO2` (single isomer, unassigned; (-)) [Compound 1b, (−)-2-(5-(2-carbamoyl-6-(trifluoromethoxy)-1H-indol-1-yl)-2,3-dihydrobenzofuran-3-yl)acetic acid], the IC50 is over 200 nM at sPLA2-X protein (setting [3]) and over 1000 nM in assay [1] (setting [4]).
In the case of `CCc1c(C(=O)C(N)=O)c2c(OCC(=O)O)cccc2n1Cc1ccccc1` [LY315920, Varespladib, reference compound], the IC50 was about 100 nM in assay [2] (IC50 value for positive control, sPLA2-V, value the positive control should give per the procedure) and 124 nM in assay [2] (numeric value, control, read-out: sPLA2 Type V Inhibition (IC50; nM)).

Values taken from US20260034111A1, “NOVEL HETEROCYCLES AS sPLA2-X INHIBITORS” (Cayman Chemical Company Incorporated, priority 2022, published 2026).
